Results reported in patent US6458838B1, “Adrenoleukodystrophy treatments” (Johns Hopkins University, priority 1999, dated 2002).

Columns and labels:
ALDP = ALDP stabilization, cytological immunofluorescence with anti-ALDP antibody; type: cell-based; conditions: human X-ALD primary fibroblasts with destabilizing missense mutations (A626T, R660W); 5 mM 4-PBA up to 10 days; data not shown
Excerpt: (§1) Immunofluorescence and peroxisome counting. […] The anti-SKL (PTSI) antibody was a gift from S. Gould and the anti-Pex11α antibody was a gift from S. Mihalik. To count peroxisomes, we photographed immunofluorescence-stained cells after focusing on the cell nucleus, and determined the peroxisome number per cell with the aid of a colon counter after projecting the slides to enlarge the image.

ALDR mRNA = test: Semi-quantitative RT-PCR in primary fibroblasts; type: cell-based; conditions: 5 mM 4-PBA for 2 days
Method: Semi-quantitative RT-PCR was done on the mRNA isolated from these cells (FIG. 1). […] In addition, the expression of acyl-CoA oxidase (AOX), the rate-limiting enzyme in VLCFA β-oxidation, was not affected. Although previous studies have reported that ALDR mRNA was not detectable in fibroblasts by either northern or RT-PCR analyses, those RT-PCR studies used about 66 ng of CDNA; we used about 250 ng of cDNA.
(§2) Semi-quantitative RT-PCR analysis. Total RNA from tissue culture cells (10^6-10^7 cells/sample) was isolated using TRizol Reagent™ (Life Technologies), treated with DNase I (100-200 units in 40 mM HCI, 10 mM NaCl, 6 mM MgCl2, pH 7.3), incubated at 37° C. for 30 min, extracted with phenol/chloroform, and precipitated with isopropanol. cDNA was generated using MMLV reverse transcriptase (RT) (Life Technologies). PCR was done in the linear range of amplification (determined for each primerpair-cDNA combination). For each cDNA sample, a ‘cocktail’ was prepared, containing PCR buffer (Promega), 200 µM of each DNTP, 1.5 mM MgCl2, 250 ng cDNA, 0.25 U of Taq polymerase (Promega) and […]. The ‘cocktail’ was divided into separate tubes containing cDNA specific primers.
Primers. The PCR primers used are listed below. In the parentheses, h indicates human and m, mouse; this is followed by the gene name, product size and annealing temperature. […]

PPARα = test: Semi-quantitative RT-PCR in primary fibroblasts; type: cell-based
Excerpt: In rodents PPARα expression is increased by peroxisomal proliferators. […] Thus, although the peroxisome proliferation response in mice may be, at least in part, through the documented PPARα pathway, the response in human cells seems to be through a newly discovered pathway that may involve Pex11α. […] This again indicates a newly discovered pathway for 4-PBA-induced peroxisome proliferation in humans and perhaps in rodents. AOX has been identified as the rate-limiting step in VLCFA β-oxidation.
as §2
Primers. The PCR primers used are listed below. […]

[1] = test system: patients with urea cycle disorders; conditions: used for many years; cited from earlier work
Pex11α = test: Semi-quantitative RT-PCR in primary fibroblasts; type: cell-based
Method: as §2
Primers. The PCR primers used are listed below. In the parentheses, h indicates human and m, mouse; this is followed by the gene name, product size and annealing temperature. For primer sequences, F is forward and R is reverse. […]

ALDRP = test: Western blot with densitometry relative to β-actin; type: cell-based; conditions: normal mouse fibroblasts, after 10 days of exposure; data not shown
Excerpt: Open bars, untreated cells; hatched bars, treated cells.
These findings indicate that ALDP1 and ALDRP may occupy equivalent domains within the peroxisomal membrane. This would agree with the observation that ALDP and ALDRP are generally expressed in different cell types.
Western blot analysis. Tissue culture cells were scraped from tissue culture dishes using a policeman, into cold PBS solution and protease inhibitor cocktail (Boehringer). Samples were mixed (1:1) with 2× sample buffer. Total protein samples were fractionated by SDS-PAGE using a 7.5% gel using the method of Laemmlis'. […] Enhanced chemiluminescence (SuperSignal Substrate; Pierce, Rockford, Ill.) was used to detect bound antibody.

[2] = test system: human control primary skin fibroblasts; test: Immunofluorescence peroxisome counting; type: cell-based; conditions: 10 day exposure to 5 mM 4PBA
Excerpt: Peroxisomes were made visible with immunofluorescence using a polyclonal antibody to the C-terminal tripeptide (SKL) peroxisome targeting signal 1 (PTS1), which is present in most peroxisomal matrix proteins. […] We counted the peroxisomes after 10 days of treatment (Table 3). Slides were scanned visually and cells categorized as having low, medium or high numbers of peroxisomes. For each cell line, the number of peroxisomes is the mean of three ‘low’, four ‘medium’ and three ‘high’ cells (Table 3). There was no difference between control cells and X-ALD cells in either the number of peroxisomes per cell or in the response to 4-PBA. […] The 2.4-fold increase in the number of peroxisomes per cell was statistically significant (P<0.0000001, two-tailed Student's t-test). Peroxisome numbers obtained with an antibody against a peroxisomal membrane protein (Pex14p) gave similar results (data not shown).
as §1

## O=C(O)CCCc1ccccc1 [4-PBA, 4-Phenyl butyrate]
ALDP
  detectable ALDP after treatment: did not result in detectable levels of ALDP
ALDR mRNA; normal and X-ALD human primary fibroblasts
  ALDR mRNA levels: substantial increase
ALDR mRNA; normal and X-ALD mouse primary fibroblasts
  ALDR mRNA levels: substantial increase
PPARα; human X-ALD fibroblasts, even after 10 days of treatment
  PPARα expression: unchanged
PPARα; mouse X-ALD fibroblasts, as early as 2 days after treatment
  PPARα expression: increased
[1]
  side effects: few, if any, side effects
Pex11α; human fibroblasts, 5 mM 4-PBA, after 2 days
  Pex11α expression: substantial increase
Pex11α; normal or X-ALD mouse fibroblasts, before or after 10 day exposure to 5 mM 4-PBA, data not shown
  Pex11α transcripts: undetectable
ALDRP
  ALDRP protein level: not increased
[2]; Mean of four normal cell lines
  peroxisome number, Increase: 2.3 fold
  peroxisome number, Treated: 939 ± 78 peroxisomes per cell
[2]; cell line Normal GM 5565
  peroxisome number, Increase: 2.3 fold
  peroxisome number, Treated: 961 ± 383 peroxisomes per cell
[2]; cell line Normal GM 5659C
  peroxisome number, Increase: 2.3 fold
  peroxisome number, Treated: 907 ± 270 peroxisomes per cell
[2]; cell line Normal GM 5756
  peroxisome number, Increase: 2.3 fold
  peroxisome number, Treated: 852 ± 271 peroxisomes per cell
[2]; cell line Normal GM 5757A
  peroxisome number, Increase: 2.4 fold
  peroxisome number, Treated: 1035 ± 338 peroxisomes per cell
